Data from patent publication US12227512B2, “Benzimidazoles and methods of using same” (priority 2019, dated 2025).

Columns and labels:
[1] = Mouse PK evaluation, plasma, IV; conditions: CD-1 mice; for concentration at 0.083 h / concentration at 0.25 h / concentration at 0.5 h / concentration at 1 h / concentration at 2 h / concentration at 4 h / concentration at 8 h / concentration at 24 h / AUC(0-inf) / AUC(0-t) / MRT inf / half-life: CD-1, mouse, plasma, 3 mg/kg; for concentration at 0.083 h / concentration at 0.25 h / concentration at 0.5 h / concentration at 1 h / concentration at 2 h / concentration at 4 h / concentration at 8 h / concentration at 24 h: intravenous, Plasma concentration; for AUC(0-inf) / AUC(0-t) / MRT inf / half-life: iv; for AUC(0-inf): AUCInf; for AUC(0-t): AUClast; for MRT inf: MRTInf_obs
[2] = Neutral Red (Toxicity) of the antiviral screening; conditions: human, Huh7 cells
[3] = Neutral Red (Toxicity) of the antiviral screening; conditions: African green monkey, Vero 76 cells
Vero 76 = test: Neutral Red (Toxicity) of the antiviral screening; conditions: Assay No. 3; Neutral Red (Cytopathic effect/Toxicity) line
[4] = test system: Dengue virus 2 New Guinea C; test: In vitro antiviral screening, Visual (Virus yield reduction); conditions: Huh7; for SI90: Visual (Virus yield reduction)/Neutral Red (Toxicity); for EC90: Dengue virus, Visual (Virus yield reduction)
Zika MR766 [5] = test: as above; conditions: Vero 76
[6] = test system: Dengue virus 2 New Guinea C; test: In vitro antiviral screening, Neutral Red (Cytopathic effect); conditions: Huh7; for SI50: Neutral Red (Cytopathic effect/Toxicity); for EC50: Dengue virus, Neutral Red (Cytopathic effect)
Zika MR766 [7] = test: as above; conditions: Vero 76

## CN(C)CCCn1c(N)nc2ccc3c(c21)CC(CO)O3 (centres unmarked) [DD041]
[1]; 3 mg/kg IV
  AUC_%Extrap_obs, Mean: 1.88%
  AUC_%Extrap_obs, Mouse 1: 3.73%
  AUC_%Extrap_obs, Mouse 2: 0.927%
  AUC_%Extrap_obs, Mouse 3: 0.993%
  AUClast/D, Mean: 262
  AUClast/D, Mouse 1: 261
  AUClast/D, Mouse 2: 251
  AUClast/D, Mouse 3: 274
  C0, Mean: 1959 ng/mL
  C0, Mouse 1: 2033 ng/mL
  C0, Mouse 2: 1738 ng/mL
  C0, Mouse 3: 2107 ng/mL
  Cl_obs, Mean: 62.5 mL/min/kg
  Cl_obs, Mouse 1: 61.4 mL/min/kg
  Cl_obs, Mouse 2: 65.8 mL/min/kg
  Cl_obs, Mouse 3: 60.3 mL/min/kg
  Vss_obs, Mean: 7.55 L/kg
  Vss_obs, Mouse 1: 5.80 L/kg
  Vss_obs, Mouse 2: 8.48 L/kg
  Vss_obs, Mouse 3: 8.37 L/kg
[1]; 3 mg/kg IV, 24 h
  Plasma concentration, Mouse 1: BLOQ
[1]; Mean, 3 mg/kg IV
  concentration at 0.083 h: 1170 ng/mL
  concentration at 0.25 h: 417 ng/mL
  concentration at 0.5 h: 281 ng/mL
  concentration at 1 h: 161 ng/mL
  concentration at 2 h: 65.7 ng/mL
  concentration at 4 h: 27.4 ng/mL
  concentration at 8 h: 8.4 ng/mL
  AUC(0-inf): 801 ng·h/mL
  AUC(0-t): 786 ng·h/mL
  MRT inf: 2.01 h
[1]; Mean, 3 mg/kg IV, 24 h
  concentration at 24 h: 1.11 ng/mL
[1]; Mouse 1, 3 mg/kg IV
  concentration at 0.083 h: 1250 ng/mL
  concentration at 0.25 h: 470 ng/mL
  concentration at 0.5 h: 322 ng/mL
  concentration at 1 h: 145 ng/mL
  concentration at 2 h: 67.5 ng/mL
  concentration at 4 h: 31.6 ng/mL
  concentration at 8 h: 9.69 ng/mL
  AUC(0-inf): 814 ng·h/mL
  AUC(0-t): 784 ng·h/mL
  MRT inf: 1.57 h
[1]; Mouse 2, 3 mg/kg IV
  concentration at 0.083 h: 1070 ng/mL
  concentration at 0.25 h: 403 ng/mL
  concentration at 0.5 h: 255 ng/mL
  concentration at 1 h: 152 ng/mL
  concentration at 2 h: 66.4 ng/mL
  concentration at 4 h: 28.5 ng/mL
  concentration at 8 h: 6 ng/mL
  AUC(0-inf): 760 ng·h/mL
  AUC(0-t): 753 ng·h/mL
  MRT inf: 2.15 h
[1]; Mouse 2, 3 mg/kg IV, 24 h
  concentration at 24 h: 1.05 ng/mL
[1]; Mouse 3, 3 mg/kg IV
  concentration at 0.083 h: 1190 ng/mL
  concentration at 0.25 h: 377 ng/mL
  concentration at 0.5 h: 267 ng/mL
  concentration at 1 h: 187 ng/mL
  concentration at 2 h: 63.3 ng/mL
  concentration at 4 h: 22 ng/mL
  concentration at 8 h: 9.51 ng/mL
  AUC(0-inf): 829 ng·h/mL
  AUC(0-t): 821 ng·h/mL
  MRT inf: 2.31 h
[1]; Mouse 3, 3 mg/kg IV, 24 h
  concentration at 24 h: 1.17 ng/mL
[1]; T1/2, Mean, 3 mg/kg IV
  half-life: 3.9 h
[1]; T1/2, Mouse 1, 3 mg/kg IV
  half-life: 2.17 h
[1]; T1/2, Mouse 2, 3 mg/kg IV
  half-life: 4.65 h
[1]; T1/2, Mouse 3, 3 mg/kg IV
  half-life: 4.87 h
[2]; CC50, Assay No. 1, Neutral Red (Cytopathic effect/Toxicity) line
  CC50: > 100 µM
[2]; CC50, Assay No. 1, Neutral Red (Toxicity), line of the virus yield reduction assay
  CC50: > 100 µM
[2]; CC50, Assay No. 2, Neutral Red (Cytopathic effect/Toxicity) line
  CC50: 26 µM
[2]; CC50, Assay No. 2, Neutral Red (Toxicity), line of the virus yield reduction assay
  CC50: 26 µM
[3]
  CC50: > 100 µM
Vero 76
  CC50: > 100 µM
[4]; Assay No. 1
  SI90: >10
[4]; Assay No. 2
  SI90: 14
[4]; Huh-7, Assay No. 1
  EC90: 10 µM
[4]; Huh-7, Assay No. 2
  EC90: 1.83 µM
Zika MR766 [5]; Assay No. 3, Visual (Virus yield reduction)/Neutral Red (Toxicity)
  SI90: >5.9
Zika MR766 [5]; Zika virus
  EC90: 17 µM
[6]; Assay No. 1
  SI50: >15
[6]; Assay No. 2
  SI50: 4.6
[6]; Huh-7, Assay No. 1
  EC50: 6.7 µM
[6]; Huh-7, Assay No. 2
  EC50: 5.6 µM
Zika MR766 [7]; Assay No. 3, Neutral Red (Cytopathic effect/Toxicity)
  SI50: >9.1
Zika MR766 [7]; Zika virus
  EC50: 11 µM
